The target in test [1] is Ubiquitin carboxyl-terminal hydrolase 9X (Homo sapiens, UniProt Q93008). As to the kind of experiment: Inhibition of USP9x in human Z138 cells after 1 hr by immunoblotting analysis. The test is classed as cell-based. For orientation: In western blotting, separated proteins are transferred to a membrane and probed.
Test [2] concerns the target T1, Ubiquitin carboxyl-terminal hydrolase isozyme L1 (Homo sapiens, UniProt P09936).
T1 sequence (P09936 whole entry): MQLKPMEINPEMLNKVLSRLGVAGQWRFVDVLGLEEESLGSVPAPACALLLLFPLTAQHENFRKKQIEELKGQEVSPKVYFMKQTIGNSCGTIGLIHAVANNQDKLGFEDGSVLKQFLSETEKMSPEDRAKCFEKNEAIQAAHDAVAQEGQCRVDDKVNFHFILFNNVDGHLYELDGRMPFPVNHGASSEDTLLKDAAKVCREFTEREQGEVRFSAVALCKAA
As to the kind of experiment: Inhibition of UCH-L1 in human Z138 cells after 1 hr by immunoblotting analysis. The test is classed as cell-based.

Test [3] deals with T2, Ubiquitin carboxyl-terminal hydrolase 5 (Homo sapiens, UniProt P45974).
T2 sequence (P45974 whole entry): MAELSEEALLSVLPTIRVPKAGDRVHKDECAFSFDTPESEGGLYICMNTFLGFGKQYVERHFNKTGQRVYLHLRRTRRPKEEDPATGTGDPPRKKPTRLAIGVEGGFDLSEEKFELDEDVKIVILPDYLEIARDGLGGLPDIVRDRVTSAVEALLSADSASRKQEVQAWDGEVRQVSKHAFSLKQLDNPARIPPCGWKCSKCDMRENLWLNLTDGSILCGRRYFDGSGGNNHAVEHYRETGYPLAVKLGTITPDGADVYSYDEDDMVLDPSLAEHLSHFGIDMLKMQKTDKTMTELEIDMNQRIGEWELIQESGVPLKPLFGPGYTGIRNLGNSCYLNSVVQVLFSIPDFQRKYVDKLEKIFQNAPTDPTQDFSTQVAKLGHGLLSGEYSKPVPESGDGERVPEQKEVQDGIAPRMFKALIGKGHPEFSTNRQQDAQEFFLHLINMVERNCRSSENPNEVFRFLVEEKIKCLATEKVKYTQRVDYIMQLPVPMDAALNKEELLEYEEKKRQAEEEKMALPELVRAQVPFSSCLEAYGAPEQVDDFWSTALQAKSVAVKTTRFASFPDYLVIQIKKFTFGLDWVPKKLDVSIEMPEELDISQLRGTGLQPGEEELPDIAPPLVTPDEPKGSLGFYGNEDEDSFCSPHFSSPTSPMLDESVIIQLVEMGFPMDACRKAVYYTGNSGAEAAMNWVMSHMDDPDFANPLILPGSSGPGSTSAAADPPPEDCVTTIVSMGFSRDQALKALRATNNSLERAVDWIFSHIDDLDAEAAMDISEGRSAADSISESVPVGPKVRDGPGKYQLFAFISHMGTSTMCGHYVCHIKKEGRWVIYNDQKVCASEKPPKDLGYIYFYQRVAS
As to the kind of experiment: Inhibition of USP5 in human Z138 cells after 1 hr by immunoblotting analysis. The test is classed as cell-based.

In test [4] the target is T3, Ubiquitin carboxyl-terminal hydrolase 5 (Homo sapiens) (UniProt P45974).
T3 sequence (whole entry): T2 sequence (P45974 whole entry)
As to the kind of experiment: Inhibition of human USP5 using Ub4 as substrate at 50 uM after 10 mins by SDS-PAGE analysis.

Test [5] addresses T4, Ubiquitin carboxyl-terminal hydrolase 4 (Homo sapiens) (UniProt Q13107).
T4 sequence (whole entry): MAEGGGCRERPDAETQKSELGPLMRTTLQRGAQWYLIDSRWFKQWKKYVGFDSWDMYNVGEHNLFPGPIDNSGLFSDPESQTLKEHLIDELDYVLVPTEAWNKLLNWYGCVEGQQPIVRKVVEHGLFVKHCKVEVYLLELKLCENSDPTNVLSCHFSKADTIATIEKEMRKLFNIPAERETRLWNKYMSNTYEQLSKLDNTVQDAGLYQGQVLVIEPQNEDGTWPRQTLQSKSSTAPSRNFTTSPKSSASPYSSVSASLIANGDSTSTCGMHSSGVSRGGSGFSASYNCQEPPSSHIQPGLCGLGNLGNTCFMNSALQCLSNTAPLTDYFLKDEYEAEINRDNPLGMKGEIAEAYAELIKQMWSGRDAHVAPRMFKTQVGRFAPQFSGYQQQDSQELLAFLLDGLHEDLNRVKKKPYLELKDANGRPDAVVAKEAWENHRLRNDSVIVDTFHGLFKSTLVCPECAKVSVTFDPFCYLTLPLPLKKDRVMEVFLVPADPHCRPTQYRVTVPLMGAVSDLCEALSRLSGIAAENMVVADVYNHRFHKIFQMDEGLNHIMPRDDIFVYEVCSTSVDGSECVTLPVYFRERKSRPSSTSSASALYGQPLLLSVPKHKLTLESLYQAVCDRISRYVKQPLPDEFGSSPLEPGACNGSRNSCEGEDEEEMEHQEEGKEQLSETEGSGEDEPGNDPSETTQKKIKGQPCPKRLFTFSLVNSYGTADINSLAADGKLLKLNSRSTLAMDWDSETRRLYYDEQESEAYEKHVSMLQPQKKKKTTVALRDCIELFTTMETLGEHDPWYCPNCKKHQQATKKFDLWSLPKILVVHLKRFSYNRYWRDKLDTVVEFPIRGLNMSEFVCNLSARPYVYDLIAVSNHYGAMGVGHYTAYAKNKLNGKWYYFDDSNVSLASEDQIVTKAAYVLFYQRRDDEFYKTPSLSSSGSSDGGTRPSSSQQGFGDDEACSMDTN
Briefly: Inhibition of human USP4 using Ub-AMC as substrate at 1 to 20 uM after 10 mins by fluorometric analysis.

Test [6] has as its target Ubiquitin carboxyl-terminal hydrolase isozyme L1 (Homo sapiens) (UniProt P09936). As to the kind of experiment: Inhibition of human UCH-L1 using Ub-AMC as substrate at 1 to 20 uM after 10 mins by fluorometric analysis.
Test [7] has as its target T3, Ubiquitin carboxyl-terminal hydrolase 5 (Homo sapiens). Briefly: Competitive binding affinity to human recombinant USP5 after 1 hr by SDS-PAGE analysis in presence of biotin-DMT.
Test [8] has the same target. As to the kind of experiment: Inhibition of wild type human USP5 expressed in Escherichia coli BL21(DE3) using K48-linked tetraubiquitin as substrate assessed as substrate hydrolysis at 20 uM after 15 mins by SDS-PAGE analysis.
Test [9] shares this target. As to the kind of experiment: Inhibition of human USP5 using Ub-AMC as substrate at 1 to 20 uM after 10 mins by fluorometric analysis.
For test [10], the target named is T4, Ubiquitin carboxyl-terminal hydrolase 4 (Homo sapiens). Briefly: Binding affinity to human USP4 after 1 hr by SDS-PAGE analysis.
Test [11] addresses T3, Ubiquitin carboxyl-terminal hydrolase 5 (Homo sapiens). As to the kind of experiment: Binding affinity to human recombinant USP5 by SDS-PAGE analysis.
The next test has as its system RBL-2H3. Briefly: Binding affinity to USP5 in rat RBL2H3 cell extracts at 1 to 100 uM by SDS-PAGE analysis. The format is cell-free.
In test [12] the target is Ubiquitin carboxyl-terminal hydrolase isozyme L1 (Homo sapiens) (UniProt P09936). As to the kind of experiment: Binding affinity to human UCH-L1 after 1 hr by SDS-PAGE analysis.
For test [13], the target named is T3, Ubiquitin carboxyl-terminal hydrolase 5 (Homo sapiens). Briefly: Inhibition of wild type human USP5 expressed in Escherichia coli BL21(DE3) using K48-linked tetraubiquitin as substrate assessed as substrate hydrolysis at 5 to 50 uM after 15 mins by SDS-PAGE analysis.

The source made the active and inactive calls. The calls are words filed in the database; no cut-off is given here. Square brackets hold non-standard residues; d marks the D form. Peptide text beside a SMILES is read from it. * marks the point of attachment. Nle = CCCC[C@H](N)C(=O)O; Cbz = O=C(OCc1ccccc1)*

Sequence of Ubiquitin carboxyl-terminal hydrolase 9X (Q93008 whole entry): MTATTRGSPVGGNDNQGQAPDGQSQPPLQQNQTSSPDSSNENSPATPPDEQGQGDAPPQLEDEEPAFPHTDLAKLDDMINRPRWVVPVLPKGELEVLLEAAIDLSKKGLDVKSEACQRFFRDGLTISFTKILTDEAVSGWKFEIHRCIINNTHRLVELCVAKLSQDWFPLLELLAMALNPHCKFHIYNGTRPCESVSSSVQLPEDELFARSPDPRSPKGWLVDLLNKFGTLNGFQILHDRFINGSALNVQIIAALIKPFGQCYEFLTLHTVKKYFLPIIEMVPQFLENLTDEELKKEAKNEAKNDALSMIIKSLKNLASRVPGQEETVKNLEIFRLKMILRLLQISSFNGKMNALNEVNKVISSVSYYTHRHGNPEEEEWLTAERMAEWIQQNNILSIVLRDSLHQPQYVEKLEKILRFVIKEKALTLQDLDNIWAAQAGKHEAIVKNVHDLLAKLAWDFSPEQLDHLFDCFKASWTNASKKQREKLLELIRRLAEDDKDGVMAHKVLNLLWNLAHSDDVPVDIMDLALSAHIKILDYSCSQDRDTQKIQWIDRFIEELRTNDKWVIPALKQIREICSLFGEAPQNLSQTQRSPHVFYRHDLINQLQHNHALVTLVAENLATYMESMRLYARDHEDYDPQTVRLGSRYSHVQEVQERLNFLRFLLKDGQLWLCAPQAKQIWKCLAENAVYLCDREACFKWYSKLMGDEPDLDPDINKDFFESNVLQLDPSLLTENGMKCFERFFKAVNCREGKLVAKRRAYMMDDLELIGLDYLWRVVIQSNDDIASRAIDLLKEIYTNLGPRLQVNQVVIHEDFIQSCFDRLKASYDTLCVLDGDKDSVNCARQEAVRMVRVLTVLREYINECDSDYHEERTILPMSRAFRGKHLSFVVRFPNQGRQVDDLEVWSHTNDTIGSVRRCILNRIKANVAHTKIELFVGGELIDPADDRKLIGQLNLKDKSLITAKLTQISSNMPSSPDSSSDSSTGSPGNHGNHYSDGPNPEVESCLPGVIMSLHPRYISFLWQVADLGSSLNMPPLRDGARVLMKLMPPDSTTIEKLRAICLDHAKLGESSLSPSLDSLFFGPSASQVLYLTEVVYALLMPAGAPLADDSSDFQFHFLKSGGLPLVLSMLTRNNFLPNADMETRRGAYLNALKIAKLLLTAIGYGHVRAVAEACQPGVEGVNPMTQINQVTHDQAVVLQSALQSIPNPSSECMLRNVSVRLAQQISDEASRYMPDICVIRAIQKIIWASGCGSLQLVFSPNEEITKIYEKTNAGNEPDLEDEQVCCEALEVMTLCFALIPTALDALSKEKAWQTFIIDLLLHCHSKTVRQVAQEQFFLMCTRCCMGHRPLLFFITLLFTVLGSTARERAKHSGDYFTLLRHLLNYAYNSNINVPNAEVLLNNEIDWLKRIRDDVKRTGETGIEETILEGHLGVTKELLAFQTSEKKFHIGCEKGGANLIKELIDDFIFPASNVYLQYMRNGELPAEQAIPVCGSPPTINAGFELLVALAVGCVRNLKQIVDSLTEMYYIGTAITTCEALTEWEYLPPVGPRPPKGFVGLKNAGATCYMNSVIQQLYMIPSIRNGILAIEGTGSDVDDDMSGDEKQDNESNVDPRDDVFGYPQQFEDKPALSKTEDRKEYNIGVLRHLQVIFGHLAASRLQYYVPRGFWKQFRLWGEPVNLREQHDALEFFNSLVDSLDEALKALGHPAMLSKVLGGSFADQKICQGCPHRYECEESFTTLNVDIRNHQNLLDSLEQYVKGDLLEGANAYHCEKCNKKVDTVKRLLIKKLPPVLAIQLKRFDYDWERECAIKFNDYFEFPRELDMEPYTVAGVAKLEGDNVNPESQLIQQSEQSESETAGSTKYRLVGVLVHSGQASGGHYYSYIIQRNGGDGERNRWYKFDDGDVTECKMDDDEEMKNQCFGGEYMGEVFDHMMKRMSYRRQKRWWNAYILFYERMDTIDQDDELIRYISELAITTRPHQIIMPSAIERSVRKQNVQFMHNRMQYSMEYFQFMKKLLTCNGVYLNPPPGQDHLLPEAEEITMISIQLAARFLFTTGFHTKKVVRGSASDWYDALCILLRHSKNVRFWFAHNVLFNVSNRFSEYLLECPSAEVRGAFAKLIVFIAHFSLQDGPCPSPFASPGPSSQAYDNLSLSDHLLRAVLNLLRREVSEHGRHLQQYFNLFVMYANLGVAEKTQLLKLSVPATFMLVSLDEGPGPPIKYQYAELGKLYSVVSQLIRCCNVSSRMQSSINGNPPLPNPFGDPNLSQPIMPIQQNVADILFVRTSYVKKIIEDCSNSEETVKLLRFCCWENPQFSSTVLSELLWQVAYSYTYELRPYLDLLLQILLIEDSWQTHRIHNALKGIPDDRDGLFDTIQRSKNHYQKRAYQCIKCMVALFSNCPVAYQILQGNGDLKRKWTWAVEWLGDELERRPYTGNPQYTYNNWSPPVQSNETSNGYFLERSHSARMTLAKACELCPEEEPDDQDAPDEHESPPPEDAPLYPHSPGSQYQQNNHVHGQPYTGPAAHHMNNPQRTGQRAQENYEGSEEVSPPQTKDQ

As usually defined, the IC50 is the concentration that gives 50% inhibition. The low end stands for greater potency, the high end for weaker potency. Turning to `CCC[C@H](NC(=O)/C(C#N)=C/c1cccc(Br)n1)c1ccccc1`, the IC50 in test [1], in test [2] and in test [3] was 3 µM throughout.

Take `COc1ccc(C(=O)ONC(=O)CNC(=O)[C@H](Cc2ccccc2)NC(=O)OCc2ccccc2)cc1`: in [4], the inhibition result is “inactive”.

Consider `Cc1c(C)c(-c2ccc(O)cc2)c(O)c(O)c1-c1ccc(O)cc1`, for which the inhibition entry in test [5], in [6], in test [8] and in test [9] was “Active” in each case. For the same compound, in test [7], the result was Active.

In the case of `Cc1c(C)c(-c2ccc(OCc3cn(CCCCCCNC(=O)CCCC[C@@H]4SC[C@@H]5NC(=O)N[C@@H]54)nn3)cc2)c(O)c(O)c1-c1ccc(O)cc1`, the inhibition entry in test [10] and in [13] was “Active” each time. Also, the outcome (in test [11]; in the test on RBL-2H3) was Active. Moreover, the inhibition result in [12] is “inactive”.

Consider `O=C(CCCC[C@@H]1SC[C@@H]2NC(=O)N[C@@H]21)NCCCCCCn1cc(COc2ccccc2)nn1`, for which the outcome in test [11] was inactive.

`CCCC[C@@H](C=O)NC(=O)[C@H](CC(C)C)NC(=O)[C@H](CC(C)C)NC(C)=O` (Ac-Leu-Leu-[Nle]-aldehyde): in test [4], the inhibition result is “inactive”.

For `CC(C)C[C@H](NC(=O)OCc1ccccc1)C(=O)N[C@H](C=O)Cc1ccccc1` (Cbz-Leu-Phe-aldehyde), the inhibition entry in test [4] is “inactive”.

The record behind these values is ChEMBL document CHEMBL2406999, “Vialinin A is a ubiquitin-specific peptidase inhibitor” (Bioorg Med Chem Lett, 2013).
